The source of these data is ChEMBL document CHEMBL1137239, “Accurate prediction of the relative potencies of members of a series of kinase inhibitors using molecular docking and MM-GBSA scoring” (J Med Chem, 2006).

What is called pIC50 is −log10 of the IC50, conventionally taken in molar units. A low value points to a high IC50.

For this experiment, the target named is T1, Aurora kinase A (Homo sapiens, UniProt O14965).
T1 sequence (O14965 whole entry): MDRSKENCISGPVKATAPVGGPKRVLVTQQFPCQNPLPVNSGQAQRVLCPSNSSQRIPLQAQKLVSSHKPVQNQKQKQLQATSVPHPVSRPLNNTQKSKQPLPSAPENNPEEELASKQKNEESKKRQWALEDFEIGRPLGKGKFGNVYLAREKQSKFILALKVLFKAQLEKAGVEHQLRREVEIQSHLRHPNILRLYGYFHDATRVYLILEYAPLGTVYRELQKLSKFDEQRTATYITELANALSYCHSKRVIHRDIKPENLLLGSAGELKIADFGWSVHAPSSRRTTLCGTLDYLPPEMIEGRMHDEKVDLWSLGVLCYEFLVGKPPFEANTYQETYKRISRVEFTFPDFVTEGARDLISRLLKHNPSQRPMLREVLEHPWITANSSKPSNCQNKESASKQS
The experiment can be described thus: Inhibition of Aurora A.

Structures are written as SMILES. pIC50: −log10 of the molar value.

Take `CCCN(CCC)S(=O)(=O)c1ncc(C(=O)Nc2ncc(Nc3ncnc4cc(OCCCN5CCOCC5)c(OC)cc34)cn2)cn1`: the negative-log IC50 (pIC50) is 5.41.

In the case of `COc1cc2c(Nc3cnc(NC(=O)c4ccccc4)nc3)ncnc2cc1OC[C@@H](O)CN1CCCCC1`, the pIC50 is 9.10.

With `COc1cc2c(Nc3cnc(NC(=O)c4ccc(Cc5ccccc5)c(Br)c4)nc3)ncnc2cc1OCCCN1CCOCC1`, the pIC50 is 7.15.
